According to US12336981B2, “Compounds and compositions for the inhibition of NAMPT” (Valo Health, Inc., priority 2010, dated 2025):
pIC50: −log10 of the molar value. Like-named read-outs stand apart in the source and are kept apart here.

Legend:
[1] = tested on: A2780 cells; assay: In-vitro cell proliferation assay (SRB), A2780 cells; assay type: cell-based; conditions: Homo sapiens, A2780, 72 h, A2780 cells, 72 hours, read-out: A2780 IC50
Summary of the method: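 Proliferation is assessed by sulforhodamine B staining following a 72-hour incubation with compound dilutions containing 0.1% DMSO.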

[2] = target: T1, NAMPT (Homo sapiens, UniProt P43490); assay: Biochemical inhibition assay: NAMPT enzymatic reaction, NMN quantified by mass spectrometry; conditions: read-out: Biochem IC50
T1 construct: His tag; host or cells: E. coli
Summary of the method: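 Inhibition of E. coli-expressed His-tagged human NAMPT, measured as NMN formation by mass spectrometry after a 30 min room-temperature reaction containing 1 μM NAM, 100 μM PRPP and 2.5 mM ATP.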

T1 sequence (P43490 whole entry): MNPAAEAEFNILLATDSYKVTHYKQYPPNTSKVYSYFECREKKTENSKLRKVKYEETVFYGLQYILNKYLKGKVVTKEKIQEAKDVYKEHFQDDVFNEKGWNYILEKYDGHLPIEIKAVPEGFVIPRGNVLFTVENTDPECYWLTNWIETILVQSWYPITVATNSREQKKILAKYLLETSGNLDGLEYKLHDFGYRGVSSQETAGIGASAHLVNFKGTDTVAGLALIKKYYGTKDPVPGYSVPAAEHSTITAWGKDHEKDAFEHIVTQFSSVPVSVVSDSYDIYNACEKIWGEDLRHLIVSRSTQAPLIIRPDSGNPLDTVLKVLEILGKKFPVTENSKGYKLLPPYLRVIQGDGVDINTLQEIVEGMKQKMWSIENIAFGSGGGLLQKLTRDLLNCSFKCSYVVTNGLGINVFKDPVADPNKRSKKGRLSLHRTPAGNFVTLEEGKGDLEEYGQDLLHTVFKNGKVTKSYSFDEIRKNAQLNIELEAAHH

SMILES	pIC50 ([1]; SRB)	pIC50 ([2]; NAMPT enzymatic reaction)	pIC50 ([2]; NAMPT enzymatic assay)	pIC50 ([1]; SRB assay)
O=C(NCc1ccc(S(=O)(=O)c2ccc(F)c(F)c2)cc1)c1cc2ccncc2o1	7.89	7.77		
CCOc1ccc(S(=O)(=O)c2ccc(CNC(=O)c3cc4cnccc4[nH]3)cc2)c(C)c1	7.90	8.04		
COc1cc(S(=O)(=O)c2ccc(CNC(=O)c3cc4cnccc4[nH]3)cc2)ccc1F	8.27	7.56		
CCCCOc1cc(F)ccc1S(=O)(=O)c1ccc(CNC(=O)c2cc3ccncc3s2)cc1	8.20	8.15		
CC(C)Oc1cccc(S(=O)(=O)c2ccc(CNC(=O)c3cc4ccncc4o3)cc2)c1	7.84		7.90	
O=C(NCc1ccc(S(=O)(=O)c2cnc3n2CCCCC3)cc1)c1cnc2nccn2c1 [N-[(4-{5H,6H,7H,8H,9H-imidazo[1,2-a]azepine-3-sulfonyl}phenyl)methyl]imidazo[1,2-a]pyrimidine-6-carboxamide]	7.54		8.96	
O=C(NCc1ccc(S(=O)(=O)c2cccc(Oc3ccc(F)cc3)c2)cc1)c1cc2ccncc2s1	7.18		8.59	
O=C(NCc1ccc(S(=O)(=O)c2ccc3c(c2)OCO3)cc1)c1cc2ccncc2s1 [N-{[4-(2H-1,3-benzodioxole-5-sulfonyl)phenyl]methyl}thieno[2,3-c]pyridine-2-carboxamide]		8.52		8.60
O=C(NCc1ccc(S(=O)(=O)c2cncc(F)c2)cc1)c1cnc2[nH]ncc2c1 [N-{[4-(5-fluoropyridine-3-sulfonyl)phenyl]methyl}-1H-pyrazolo[3,4-b]pyridine-5-carboxamide]	7.60		7.10	
COc1ccc(C(C)C)cc1S(=O)(=O)c1ccc(CNC(=O)c2cnc3[nH]ncc3c2)cc1 [N-[(4-{[2-methoxy-5-(propan-2-yl)benzene]sulfonyl}phenyl)methyl]-1H-pyrazolo[3,4-b]pyridine-5-carboxamide]	7.53		7.05	
CCCOc1cccc(F)c1S(=O)(=O)c1ccc(CNC(=O)c2ccc3nccn3c2)cc1	9.00	7.04		
CC(C)c1ccc(S(=O)(=O)c2ccc(CNC(=O)c3cc4ccncc4s3)cc2)cc1 [N-[(4-{[4-(propan-2-yl)benzene]sulfonyl}phenyl)methyl]thieno[2,3-c]pyridine-2-carboxamide]		8.22		8.15
Cc1ccc(Cl)cc1S(=O)(=O)c1ccc(CNC(=O)c2ccc3nccn3c2)cc1 [N-({4-[(5-chloro-2-methylbenzene)sulfonyl]phenyl}methyl)imidazo[1,2-a]pyridine-6-carboxamide]	8.43	8.72		
COc1ccccc1S(=O)(=O)c1ccc(CNC(=O)c2cc3ccncc3s2)cc1 [N-({4-[(2-methoxybenzene)sulfonyl]phenyl}methyl)thieno[2,3-c]pyridine-2-carboxamide]		8.15		8.28
CN(C)C(=O)c1ccccc1S(=O)(=O)c1ccc(CNC(=O)c2ccc3nccn3c2)cc1 [N-[(4-{[2-(dimethylcarbamoyl)benzene]sulfonyl}phenyl)methyl]imidazo[1,2-a]pyridine-6-carboxamide]	6.00 to 7.00		< 6.78	
CCOc1cc(F)ccc1S(=O)(=O)c1ccc(CNC(=O)c2cc3cnccc3[nH]2)cc1 [N-({4-[(2-ethoxy-4-fluorobenzene)sulfonyl]phenyl}methyl)-1H-pyrrolo[3,2-c]pyridine-2-carboxamide]	8.74	8.47		
O=C(NCc1ccc(S(=O)(=O)c2csc(-c3cccc(F)c3)n2)cc1)c1cnc2[nH]ncc2c1 [N-({4-[2-(3-fluorophenyl)-1,3-thiazole-4-sulfonyl]phenyl}methyl)-1H-pyrazolo[3,4-b]pyridine-5-carboxamide]	7.22		7.57	
Cn1cnc2ccc(S(=O)(=O)c3ccc(CNC(=O)c4cnc5nccn5c4)cc3)cc21 [N-{[4-(1-methyl-1H-1,3-benzodiazole-6-sulfonyl)phenyl]methyl}imidazo[1,2-a]pyrimidine-6-carboxamide]	7.47		8.40	
CCCCOc1ccc(S(=O)(=O)c2ccc(CNC(=O)c3cc4cnccc4[nH]3)cc2)cc1F	7.87	7.27		

SMILES	pIC50 ([1]; SRB)	pIC50 ([2]; NAMPT enzymatic reaction)	pIC50 ([2]; NAMPT enzymatic assay)	pIC50 ([1]; SRB assay)
CN(C)CCc1cccc(S(=O)(=O)c2ccc(CNC(=O)c3cc4ccncc4s3)cc2)c1	8.80		8.60	
CCCCOc1ccc(Cl)cc1S(=O)(=O)c1ccc(CNC(=O)c2cc3ccncc3o2)cc1	7.18	7.61		
O=C(NCc1ccc(S(=O)(=O)c2cc(F)ccc2Cl)cc1)c1cc2ccncc2o1	7.61	7.79		
CC(C)c1cccc(S(=O)(=O)c2ccc(CNC(=O)c3ccc4nccn4c3)cc2)c1 [N-[(4-{[3-(propan-2-yl)benzene]sulfonyl}phenyl)methyl]imidazo[1,2-a]pyridine-6-carboxamide]	8.46		7.91	
O=C(NCc1ccc(S(=O)(=O)c2cc(F)cc(Cl)c2)cc1)c1cc2ccncc2o1	8.51	7.75		
O=C(NCc1ccc(S(=O)(=O)c2cc(F)cc(F)c2)cc1)c1cnc2nccn2c1	8.52	8.70		
O=C(NCc1ccc(S(=O)(=O)c2ccc(F)cc2C(F)(F)F)cc1)c1cc2cnccc2[nH]1	7.85		7.57	
Cc1ccc(S(=O)(=O)c2ccc(CNC(=O)c3cc4ccncc4s3)cc2)c(C)c1 [N-({4-[(2,4-dimethylbenzene)sulfonyl]phenyl}methyl)thieno[2,3-c]pyridine-2-carboxamide]	7.65		7.92	
Cc1cc(C)n(-c2cccc(S(=O)(=O)c3ccc(CNC(=O)c4cc5ccncc5o4)cc3)c2)n1	8.46		8.15	
COc1cccc(Cl)c1S(=O)(=O)c1ccc(CNC(=O)c2cc3ccncc3s2)cc1	8.54	8.57		
Cc1cc(C)n(-c2cccc(S(=O)(=O)c3ccc(CNC(=O)c4cnc5nccn5c4)cc3)c2)n1	8.39		8.74	
O=C(NCc1ccc(S(=O)(=O)c2ccc(Cl)c(C(F)(F)F)c2)cc1)c1cc2ccncc2s1 [N-[(4-{[4-chloro-3-(trifluoromethyl)benzene]sulfonyl}phenyl)methyl]thieno[2,3-c]pyridine-2-carboxamide]		8.00		8.47
O=C(NCc1ccc(S(=O)(=O)c2ccc(F)cc2C(F)(F)F)cc1)c1cc2ccncc2s1	7.84		8.19	
COc1c(F)cccc1S(=O)(=O)c1ccc(CNC(=O)c2cc3ccncc3s2)cc1	7.90	7.88		
COc1ccc(C)c(NS(=O)(=O)c2ccc(CNC(=O)c3cc4cnccc4[nH]3)cc2)c1 [N-({4-[(5-methoxy-2-methylphenyl)sulfamoyl]phenyl}methyl)-1H-pyrrolo[3,2-c]pyridine-2-carboxamide]		7.29		4.89
Cn1ncc2cc(S(=O)(=O)c3ccc(CNC(=O)c4cnc5[nH]ncc5c4)cc3)ccc21 [N-{[4-(1-methyl-1H-indazole-5-sulfonyl)phenyl]methyl}-1H-pyrazolo[3,4-b]pyridine-5-carboxamide]	8.56		8.27	
COc1ccc(S(=O)(=O)c2ccc(CNC(=O)c3ccc4nccn4c3)cc2)c(Cl)c1	7.94	7.78		
O=C(NCc1ccc(S(=O)(=O)N2CCCCC2)cc1)c1ccc2nccn2c1 [N-{[4-(piperidine-1-sulfonyl)phenyl]methyl}imidazo[1,2-a]pyridine-6-carboxamide]		7.74		5.94
